Experimental data: patent US20020094522A1, “Means and methods for monitoring non-nucleoside reverse transcriptase inhibitor antiretroviral therapy and guiding therapeutic decisions in the treatment of HIV/AIDS” (priority 2000, published 2002)

Assays:
[1] = test system: A98G-RTV (HIV reverse transcriptase A98G)
Excerpt: (§1) The resistance test vectors containing a functional luciferase gene cassette were constructed and host cells were transfected with the resistance test vector DNA. The resistant test vectors contained patient-derived reverse transcriptase and protease sequences that were either susceptible or resistant to the antiretroviral agents, such as nucleoside reverse transcriptase inhibitors, non-nucleoside reverse transcriptase inhibitors and protease inhibitors. The resistance test vector viral particles produced by transfecting the resistance test vector DNA into host cells, either in the presence or absence of protease inhibitors, were used to infect target host cells grown either in the absence of NRTI or NNRTI or in the presence of increasing concentrations of the drug. The amount of luciferase activity produced in infected target host cells in the presence of drug was compared to the amount of luciferase produced in infected target host cells in the absence of drug. Drug resistance was measured as the amount of drug required to inhibit by 50% the luciferase activity detected in the absence of drug (inhibitory concentration 50%, IC50). The IC50 values were determined by plotting percent drug inhibition vs. log10 drug concentration.
(§2) Host cells were seeded in 10-cm-diameter dishes and were transfected several days after plating with resistance test vector plasmid DNA and the envelope expression vector. Transfections were performed using a calcium-phosphate precipitation procedure. The cell culture media containing the DNA precipitate was replaced with fresh medium, from one to 24 hours, after transfection. Cell culture media containing resistance test vector viral particles was harvested one to four days after transfection and was passed through a […] filter before being stored at −80° C. HIV capsid protein (p24) levels in the harvested cell culture media were determined by an EIA method as described by the manufacturer (SIAC; Frederick, Md.). Before infection, target cells (293 and 293/T) were plated in cell culture media. Control infections were performed using cell culture media from mock transfections (no DNA) or transfections containing the resistance test vector plasmid DNA without the envelope expression plasmid. One to three or more days after infection the media was removed and cell lysis buffer (Promega) was added to each well. […] The inhibitory effect of the drug was determined using the following equation: […]
(§3) where RLUluc [drug] is the relative light unit of luciferase activity in infected cells in the presence of drug and RLUluc is the Relative Light Unit of luciferase activity in infected cells in the absence of drug. IC50 values were obtained from the sigmoidal curves that were generated from the data by plotting the percent inhibition of luciferase activity vs. the log10 drug concentration.

[2] = test system: Y181I-RTV (HIV reverse transcriptase Y181I)
Excerpt: as §1, §2, §3

Y181C-A98G-RTV = test system: Y181C-A98G-RTV
Excerpt: as §1, §2, §3

[3] = test system: Y188C-RTV (HIV reverse transcriptase Y188C)
Excerpt: as §1, §2, §3

[4] = test system: V108I -RTV (HIV reverse transcriptase V108I)
Excerpt: as §1, §2, §3

V106A-V189L-RTV = assay: Phenotypic susceptibility assay, V106A-V189L-RTV; type: cell-based, HIV-1; conditions: site directed mutant
Excerpt: as §1
as §2, with “Md.).” for “Md.). Before infection, target cells (293 and 293/T) were plated in cell culture media. Control infections were performed using cell culture media from mock transfections (no DNA) or transfections containing the resistance test vector plasmid DNA without the envelope expression plasmid. One to three or more days after infection the media was removed and cell lysis buffer (Promega) was added to each well.”

V106A-F227-RTV = assay: Phenotypic susceptibility assay, V106A-F227-RTV; type: cell-based, HIV-1; conditions: site directed mutant
Excerpt: as §1
as §2, with “Md.).” for “Md.). Before infection, target cells (293 and 293/T) were plated in cell culture media. Control infections were performed using cell culture media from mock transfections (no DNA) or transfections containing the resistance test vector plasmid DNA without the envelope expression plasmid. One to three or more days after infection the media was removed and cell lysis buffer (Promega) was added to each well.”

K101E-G190A-RTV = test system: K101E-G190A-RTV
Excerpt: as §1, §2, §3
(§4) The K101E, K103N and G190A mutations were introduced alone and in combination into resistance test vectors using the mega-primer method for site-directed mutagenesis (Sakar and Sommar, Ibid.).

K103N-G190A-RTV = test system: K103N-G190A-RTV
Excerpt: as §1, §2, §3, §4

[5] = test system: RTV-1033 (patient sample 98-1033); assay: Phenotypic susceptibility assay, RTV-1033; type: cell-based, HIV-1; conditions: RTV-1033, patient-derived pool
Protocol: (§5) Transfections were performed using a calcium-phosphate precipitation procedure. […] Cell lysates were assayed for luciferase activity (FIG. 3).
(§6) The drug inhibition curves are shown in (FIG. 3).
A resistance test vector was constructed as described in Example 1 from a patient sample designated 98-1033. […] Isolation of viral RNA and RT/PCR was used to generate a patient derived segment that comprised viral sequences coding for all of PR and aa 1-313 of RT. The PDS was inserted into an indicator gene viral vector to generate resistance test vectors designated RTV-1033 and RTV-757. RTV-1033 and RTV-757 were then tested in a phenotypic assay to determine accurately and quantitatively the level of susceptibility to a panel of anti-retroviral drugs. […] An IC50 was determined for the resistance test vector pool for each drug tested. The pattern of susceptibility to all of the drugs tested was examined and compared to known patterns of susceptibility.

[6] = test system: Y188L-RTV (HIV reverse transcriptase Y188L); assay: Phenotypic susceptibility assay, Y188L-RTV; type: cell-based, HIV-1; conditions: site directed mutant
Excerpt: as §1
as §2, with “Md.).” for “Md.). Before infection, target cells (293 and 293/T) were plated in cell culture media. Control infections were performed using cell culture media from mock transfections (no DNA) or transfections containing the resistance test vector plasmid DNA without the envelope expression plasmid. One to three or more days after infection the media was removed and cell lysis buffer (Promega) was added to each well.”

[7] = test system: T66I integrase site-directed mutant resistance test vector; assay: Phenotypic susceptibility assay, T66I integrase mutant vector; type: cell-based, HIV; conditions: {}
Protocol: as §5, §6
A resistance test vector containing the threonine to isoleucine mutation at position 66 of the integrase protein (T66I) was constructed and tested using the phenotypic assay described earlier.

[8] = test system: F227L-RTV (HIV reverse transcriptase F227L); assay: Phenotypic susceptibility assay, F227L-RTV; type: cell-based, HIV-1; conditions: values <1 = increased susceptibility
Excerpt: as §1
as §2, with “Md.).” for “Md.). Before infection, target cells (293 and 293/T) were plated in cell culture media. Control infections were performed using cell culture media from mock transfections (no DNA) or transfections containing the resistance test vector plasmid DNA without the envelope expression plasmid. One to three or more days after infection the media was removed and cell lysis buffer (Promega) was added to each well.”

E138A-Y188L-RTV = assay: Phenotypic susceptibility assay, E138A-Y188L-RTV; type: cell-based, HIV-1; conditions: site directed mutant
Excerpt: as §1, with “Drug resistance was measured as the amount of drug required to inhibit by 50% the luciferase activity detected in the absence of drug (inhibitory concentration 50%, IC50).” left out
Host cells were seeded in 10-cm-diameter dishes and were transfected several days after plating with resistance test vector plasmid DNA and the envelope expression vector. […] HIV capsid protein (p24) levels in the harvested cell culture media were determined by an EIA method as described by the manufacturer (SIAC; Frederick, Md.). […] The inhibitory effect of the drug was determined using the following equation: […]
The E138A mutation alone and in combination with Y188L was introduced into resistance test vectors using the megaprimer method for site-directed mutagenesis (Sakar and Sommar, Ibid.). Resistance test vectors containing the E138A mutation (E138A-RTV) or the E138 mutation along with the […] mutation (E138A-Y188L-RTV) were then tested using the phenotypic assay described earlier and the results were compared to those determined using a genetically defined resistance test vector that was wild type at positions 188 and 138.

V106A-Y181C-F227L-RTV = assay: Phenotypic susceptibility assay, V106A-Y181C-F227L-RTV; type: cell-based, HIV-1; conditions: site directed mutant
Excerpt: as §1
as §2, with “Md.).” for “Md.). Before infection, target cells (293 and 293/T) were plated in cell culture media. Control infections were performed using cell culture media from mock transfections (no DNA) or transfections containing the resistance test vector plasmid DNA without the envelope expression plasmid. One to three or more days after infection the media was removed and cell lysis buffer (Promega) was added to each well.”

SMILES	fold loss of susceptibility compared to wild type control RTV [1]	fold loss of susceptibility compared to wild type control RTV [2]	fold loss of susceptibility compared to wild type control RTV (Y181C-A98G-RTV)	fold loss of susceptibility compared to wild type control RTV [3]	fold change in susceptibility compared to wild type control RTV [4]	fold loss of susceptibility compared to wild type control RTV (V106A-V189L-RTV)	fold loss of susceptibility compared to wild type control RTV (V106A-F227-RTV)	fold loss of susceptibility compared to wild type control RTV (K101E-G190A-RTV)	fold loss of susceptibility compared to wild type control RTV (K103N-G190A-RTV)	fold decrease in susceptibility (IC50) [5]	fold loss of susceptibility compared to wild type control RTV [6]	increase in susceptibility compared to wild type control RTV [7]	fold change in susceptibility compared to wild type control RTV [8]	fold loss of susceptibility compared to wild type control RTV (E138A-Y188L-RTV)	fold loss of susceptibility compared to wild type control RTV (V106A-Y181C-F227L-RTV)
Cc1ccnc2c1NC(=O)c1cccnc1N2C1CC1 [nevirapine]	8 fold	740 fold	greater than 800 fold	30 fold	3 fold	50 fold	greater than 800 fold	greater than 800 fold	greater than 800 fold	greater than 800 fold	greater than 800 fold	8-10 fold	3 fold	greater than 800 fold	greater than 800 fold
CC(C)Nc1cccnc1N1CCN(C(=O)c2cc3cc(NS(C)(=O)=O)ccc3[nH]2)CC1 [delavirdine]	3 fold	20 fold	240 fold	3 fold	1.3 fold	3 fold	3 fold	2 fold	40 fold	30 fold	9 fold	8-10 fold	0.03 fold	75 fold	50 fold
O=C1Nc2ccc(Cl)cc2[C@@](C#CC2CC2)(C(F)(F)F)O1 [efavirenz]	3 fold	1.4 fold	7 fold	20 fold	1.7 fold	1 fold	8 fold	120 fold	215 fold	200 fold	110 fold	8-10 fold	0.48 fold	88 fold	12 fold
